Data as given in ChEMBL document CHEMBL3856189, “Synthesis of novel diterpenoid analogs with in-vivo antitumor activity” (Eur J Med Chem, 2016).
The source made the active and inactive calls. No cut-off for these calls is given here.

Tests used:
[1] = Antitumor activity against human T47D cells xenografted in nude mouse assessed as tumor weight at 20 mg/kg/day, ip administered daily for 18 days measured every 3 days during compound dosing (reference value: 882 +/- 149 mg); assay type: functional
[2] = Potency index, ratio of podophyllotoxin IC50 to compound IC50 for human T47D cells; assay type: functional
Mus musculus [3] = experiment: Toxicity in nude mouse xenografted with human T47D cells assessed as effect on food and water withdrawal at 20 to 40 mg/kg/day, ip administered daily for 18 days measured every 3 days during compound dosing; assay type: organism-based; conditions: in vivo
[4] = Selectivity index, ratio of IC50 for HAF cells to IC50 for human HT-29 cells; assay type: functional
[5] = Selectivity index, ratio of IC50 for HAF cells to IC50 for human MDA-MB-231 cells; assay type: functional
T47D [6] = experiment: Antimigratory activity in human T47D cells assessed as inhibition of cell migration at 20 uM after 12 hrs by crystal violet staining based transwell migration assay; assay type: functional
[7] = (§1) Inhibition of colony formation in human T47D cells after 7 days by crystal violet staining based assay; assay type: functional, cell-based; conditions: 168 h
T47D [8] = experiment: as §1; assay type: functional, cell-based
[9] = Antiproliferative activity against human HT-29 cells after 96 hrs by SRB assay; assay type: functional, cell-based; conditions: HT-29, 96 h
Mus musculus [10] = experiment: Toxicity in nude mouse xenografted with human T47D cells assessed as organ damage at 20 to 40 mg/kg/day, ip administered daily for 18 days; assay type: organism-based; conditions: in vivo, 432 h
MCF7 = experiment: Selectivity index, ratio of IC50 for HAF cells to IC50 for human MCF7 cells; assay type: functional
[11] = Antiproliferative activity against human MCF7 cells after 96 hrs by SRB assay; assay type: functional, cell-based; conditions: MCF7, 96 h
HL-60 = experiment: Selectivity index, ratio of IC50 for HAF cells to IC50 for human HL60 cells; assay type: functional
Mus musculus [12] = experiment: Toxicity in nude mouse xenografted with human T47D cells assessed as incidence of impaired posture or movement at 20 to 40 mg/kg/day, ip administered daily for 18 days measured every 3 days during compound dosing; assay type: organism-based; conditions: in vivo
[13] = Antiproliferative activity against human DU145 cells after 96 hrs by SRB assay; assay type: functional, cell-based; conditions: DU-145, 96 h
[14] = Antitumor activity against human T47D cells xenografted in nude mouse assessed as tumor volume at 40 mg/kg/day, ip administered daily for 18 days measured every 3 days during compound dosing (reference value: 1220 +/- 127 mm3); assay type: functional
Mus musculus [15] = experiment: Acute toxicity in nude mouse xenografted with human T47D cells assessed as effect on the survival rate at 20 to 40 mg/kg/day, ip administered daily for 18 days measured on day 18 post last dose; assay type: organism-based; conditions: in vivo, 432 h
PC-3 = experiment: Selectivity index, ratio of IC50 for HAF cells to IC50 for human PC3 cells; assay type: functional
T47D [16] = experiment: Induction of apoptosis in human T47D cells assessed as late apoptotic cells at 20 uM after 48 hrs by Annexin V-FITC/propidium iodide staining based flow cytometry (reference value: 2.72 %); assay type: functional
[17] = Antitumor activity against human T47D cells xenografted in nude mouse assessed as tumor weight at 40 mg/kg/day, ip administered daily for 18 days measured every 3 days during compound dosing (reference value: 882 +/- 149 mg); assay type: functional
T47D [18] = experiment: Induction of apoptosis in human T47D cells assessed as late apoptotic cells at 5 uM after 48 hrs by Annexin V-FITC/propidium iodide staining based flow cytometry (reference value: 2.72 %); assay type: functional
T47D [19] = experiment: Selectivity index, ratio of IC50 for HAF cells to IC50 for human T47D cells; assay type: functional
[20] = Antiproliferative activity against HAF cells after 96 hrs by SRB assay; assay type: cell-based; conditions: Homo sapiens
[21] = Antiproliferative activity against human MDA-MB-231 cells after 96 hrs by SRB assay; assay type: functional, cell-based; conditions: MDA-MB-231, 96 h
Mus musculus [22] = experiment: Toxicity in nude mouse xenografted with human T47D cells assessed as body weight loss at 20 to 40 mg/kg/day, ip administered daily for 18 days measured every 3 days during compound dosing; assay type: organism-based; conditions: in vivo
T47D [23] = experiment: Induction of apoptosis in human T47D cells assessed as early apoptotic cells at 5 uM after 48 hrs by Annexin V-FITC/propidium iodide staining based flow cytometry (reference value: 1.49 %); assay type: functional
[24] = (§2) Antimigratory activity in human T47D cells assessed as inhibition of cell migration after 12 hrs by crystal violet staining based transwell migration assay; assay type: functional
T47D [25] = experiment: as §2; assay type: functional
[26] = Antiproliferative activity against human PC3 cells after 96 hrs by SRB assay; assay type: functional, cell-based; conditions: PC-3, 96 h
[27] = Antiproliferative activity against human HCT116 cells after 96 hrs by SRB assay; assay type: functional, cell-based; conditions: HCT-116, 96 h
[28] = Antiproliferative activity against human HL60 cells after 96 hrs by SRB assay; assay type: functional, cell-based; conditions: HL-60, 96 h
T47D [29] = experiment: Induction of apoptosis in human T47D cells assessed as early apoptotic cells at 20 uM after 48 hrs by Annexin V-FITC/propidium iodide staining based flow cytometry (reference value: 1.49 %); assay type: functional
DU-145 = experiment: Selectivity index, ratio of IC50 for HAF cells to IC50 for human DU145 cells; assay type: functional
[30] = Antiproliferative activity against human T47D cells after 96 hrs by SRB assay; assay type: functional, cell-based
T47D [31] = experiment: Induction of apoptosis in human T47D cells assessed as late apoptotic cells at 10 uM after 48 hrs by Annexin V-FITC/propidium iodide staining based flow cytometry (reference value: 2.72 %); assay type: functional
HCT-116 = experiment: Selectivity index, ratio of IC50 for HAF cells to IC50 for human HCT116 cells; assay type: functional
[32] = Antitumor activity against human T47D cells xenografted in nude mouse assessed as tumor volume at 20 mg/kg/day, ip administered daily for 18 days measured every 3 days during compound dosing (reference value: 1220 +/- 127 mm3); assay type: functional
T47D [33] = experiment: Induction of apoptosis in human T47D cells assessed as early apoptotic cells at 10 uM after 48 hrs by Annexin V-FITC/propidium iodide staining based flow cytometry (reference value: 1.49 %); assay type: functional
Mus musculus [34] = experiment: Toxicity in nude mouse xenografted with human T47D cells assessed as diarrhoea at 20 to 40 mg/kg/day, ip administered daily for 18 days; assay type: organism-based; conditions: in vivo, 432 h

COc1cc2c(cc1C(=O)Nc1ccc(N(C)C)cc1)CC[C@H]1C(C)(C)[C@@H](O)CC[C@]21C
Activity [1]: 550 mg | Ratio IC50 [2]: 25 | Activity (Mus musculus [3]): Non-Toxic | Ratio IC50 [4]: 13.8 | Ratio IC50 [5]: 13.8 | Activity (T47D [6]): Active | EC50 [7]: 2.56 nM | Activity (T47D [8]): Dose-dependent effect | IC50 [9]: 590 nM | Activity (Mus musculus [10]): Non-Toxic | Ratio IC50 (MCF7): 13.8 | IC50 [11]: 280 nM | Ratio IC50 (HL-60): 13.8 | Activity (Mus musculus [12]): Non-Toxic | IC50 [13]: 280 nM | Activity [14]: 401 mm3 | Activity (Mus musculus [15]): Non-Toxic | Ratio IC50 (PC-3): 13.8 | Activity (T47D [16]): 1.29% | Activity [17]: 320 mg | Activity (T47D [18]): 0.49% | Ratio IC50 (T47D [19]): 13.8 | IC50 [20]: 4540 nM | IC50 [21]: 320 nM | Activity (Mus musculus [22]): Non-Toxic | Activity (T47D [23]): 4.31% | EC50 [24]: 6420 nM | Activity (T47D [25]): Dose-dependent effect | IC50 [26]: 540 nM | IC50 [27]: 570 nM | IC50 [28]: 40 nM | Activity (T47D [29]): 24.58% | Ratio IC50 (DU-145): 13.8 | IC50 [30]: 10 nM | Activity (T47D [31]): 1.09% | Ratio IC50 (HCT-116): 13.8 | Activity [32]: 654 mm3 | Activity (T47D [33]): 16.86% | Activity (Mus musculus [34]): Non-Toxic
